Test results: patent US20030099677A1, “Cosmetic composition and method of treating skin” (Unilever Home & Personal Care USA, Division of Conopco. Inc., priority 2001, published 2003)

Key:
Format in all cases: cell-based
[1] = system: decorin synthesis in human dermal fibroblasts; test: Dot blot assay for decorin in dermal fibroblast conditioned medium; conditions: for Decorin: 24 hours, relative to vehicle treated control value of 100
Experimental: (§1) Primary human foreskin fibroblasts at passage 2 (P2) were seeded into 12-well plates at 10000 cells/cm^2 and maintained for 24 hours in an atmosphere of 5% carbon dioxide and 4% oxygen in Dulbeccos Modified Eagles Medium (DMEM) supplemented with 10% foetal calf serum. After this time the cells were washed with serum free DMEM and then incubated in fresh serum free DMEM for a further 60 hours. The fibroblast monolayers were then washed again with serum free DMEM. Test reagents and vehicle controls were added to the cells in triplicate in a final volume of 0.4 ml/well fresh serum free DMEM and incubated for a further 24 hours. This fibroblast conditioned medium was either analysed immediately or snap frozen in liquid nitrogen and stored at −70° C. for future analysis. The cells were then counted and data from the dot-blot analysis subsequently standardised to cell number.
(§2) Samples of conditioned medium from dermal fibroblasts treated with vehicle (as a control) or test reagents were supplemented with 20 mM dithiothreitol (1:10 dilution of 200 mM stock solution) and 0.1% sodium dodecylsulphate (1:100 dilution of 10% stock solution), mixed well and then incubated at 75° C. for 2 minutes. […]
(§3) Following this the Immobilon strips were again washed with TBS/Tween 20 (3×5 minutes) before being allowed to dry in air at room temperature. […] Dot intensity was assessed by computer-assisted image analysis using the quantification tools in ImageQuant™, standardised to cell number and the effects of various test reagents on decorin and procollagen-I synthesis were determined relative to a vehicle treated control value of 100 arbitrary units.
(§4) Tables 1 indicates the effects of trans-7-octadecanoic acid on procollagen-I and decorin synthesis in human dermal fibroblasts, and the amounts in which it was applied. In order to normalize the results the effects of the test substance was determined relative to a vehicle treated control value of 100 arbitrary units.

[2] = system: Transglutaminase activity in pigskin epidermis; test: In situ TGase assay in pig skin organ culture; conditions: for Transglutaminase activity (fluorescence-background) Mean: pig organ culture, 48 hours
Experimental: Porcine back skin was prepared by carefully removing subcutaneous fat and muscle resulting in a skin sample 3-4 mm thick. Hair was clipped and the skin was washed in water, removing any residual blood or dirt. The skin sample was cut into 7 cm×7 cm squares and incubated in 5% Dettol (sterile) for 1 hr at room temp (RT). It was then incubated in DMEM containing ABAM (5 mL/500 mL of medium) for 1 hr. Hydrocortisone 21-hemisuccinate (100îg/mL, sterile filtered) was added to DMEM+ABAM. Tripods and meshes were set up on petri dishes containing 3 ml of media (DMEM/ABAM/hydrocortisone), creating a negative meniscus. Punch biopsies were taken from the skin and placed onto the mesh (4 per dish), and then incubated for 24 hrs at 37° C., 5% CO2 before being treated. Media was changed daily.
A stock solution of 10 mM Biotinylated monodansylcadaverine in 0.013M HCl was, and stored at −20° C. From the stock solution substrate buffer was prepared: 0.1 mM biotinylated monodansylcadaverine, 5 mM CaCl2 in 100 mM Tris HCl. 5 mM CaCl2 was replaced with 200 mM EDTA for a […] control.
Pig skin biopsies were snap frozen in liquid nitrogen and stored at −20° C. Sections were cut (5-8 microns thick, Brights cryostat) and air-dried for 10 minutes at room temperature (RT). The sections were incubated for 30 minutes at RT with 1% BSA in 0.1M Tris/HC1, pH 8.4 then incubated in substrate buffer for 2 hours at RT. The slides were washed to stop the reaction in 25 mM EDTA in PBS for 5 minutes, followed by two washes in PBS. The slides were then incubated in Alexa fluor 488 streptavidin (1:250) for 30 minutes at RT, then washed in PBS as before. The slides were counterstained with 10îg/ml propidium iodide for 10 seconds, then washed in water and mounted in prolong antifade solution. Sections were visualised using a Microscope (Leica, Leitz DMRB, Leitz ploemopak filter block L3, Milton Keynes, Bucks. UK) and images were captured using Image Grabber PC Software (Neotech Ltd. Eastleigh, Hampshire, UK). […]

[3] = system: Human foreskin keratinocytes; test: Keratinocyte cornified envelope assay (marker of keratinocyte differentiation)
Experimental: Method to Assess Effect of Active on Keratinocyte Cornified Envelope Production—a Marker of Keratinocyte Differentiation
(§5) […] The cells were grown for 3 days prior to treatment. The treatment vehicle was DMSO. After 4 days of treatment, the cells were harvested and washed three times with 100 μl phosphate buffered saline (PBS). The cells were then extracted in 1% Triton X100, 50 mM Tris pH 8.0, 0.02 mM Leupeptin, 0.02 mM Pepstatin. 60 μl/well extract was then assayed for DNA concentration (ng/well), Pico Green DNA assay, Molecular Probes.
The cells were then washed in 200 μl PBS, and then 100 μl of 2% SDS, 20 mM DTT was added to each well. The plates were then sealed with a Titertek plate sealer (ICN) and incubated at 60° C. over night in an air-tight damp environment (i.e. a sealed sandwich box lined with damp paper). The extract was then filtered through a PVDF transfer membrane (Bio-rad) under gravity using Dot-Blot apparatus (Bio-rad). The membrane was then washed in distilled water prior to silver staining (Bio-rad Silver Stain kit). The stained dot blot membrane was then analyzed using Phoretix array software (Phoretix International).

[4] = system: Human foreskin keratinocytes; test: Pico Green DNA assay of keratinocyte extracts (proliferation)
Experimental: as §5

[5] = system: procollagen-I synthesis in human dermal fibroblasts; test: Dot blot assay for procollagen-I in dermal fibroblast conditioned medium; conditions: for Pro-collagen: 24 hours, relative to vehicle treated control value of 100
Experimental: as §1, §2, §3, §4

[6] = human dermal fibroblasts, statement in words
[7] = Table 3, 1 μM, grown in 1.2 mM calcium
[8] = Table 4, 0.001 μM, low calcium, P = 0.002

## CCCCCCCCCC/C=C/CCCCCC(=O)O [Trans-7-octadecanoic acid, trans-7-octadecanoic acid]
[1]; 1.0 μM
  Decorin: 163.10 % of vehicle control
[1]; 10.0 μM
  Decorin: 134.04 % of vehicle control
[1]; [6]
  effect on synthesis of decorin as compared to the control: significantly up-regulates
[2]; 0.1 μM
  Transglutaminase activity (fluorescence-background) Mean: 1908
[2]; 1 μM, intact pigskin epidermis, statement in words
  effect on transglutamine cross linking activity: induces transglutamine cross linking activity
[2]; 1 μM
  Transglutaminase activity (fluorescence-background) Mean: 2268
[3]; Table 2, 1 μM, grown in 1.2 mM calcium, 4 days of treatment
  Cornified Envelope Assay Mean: 57900
[3]; Table 2, 10 μM, grown in 1.2 mM calcium, 4 days of treatment
  Cornified Envelope Assay Mean: 54689
[3]; Table 2, 50 μM, grown in 1.2 mM calcium, 4 days of treatment
  Cornified Envelope Assay Mean: 49272
[3]; Table 2, 100 μM, grown in 1.2 mM calcium, 4 days of treatment
  Cornified Envelope Assay Mean: 42110
[3]; Table 3, 0.1 μM, grown in 1.2 mM calcium
  Cornified Envelope Assay Mean: 37930
[3]; [7]
  Cornified Envelope Assay Mean: 47773
[3]; [8]
  Cornified Envelope Assay Mean: 39627
  Cornified Envelope assay % control: 212 % control
[3]; Table 4, 0.01 μM, low calcium
  Cornified Envelope Assay Mean: 22221
  Cornified Envelope assay % control: 119 % control
[3]; in low calcium, at low concentrations, statement in words
  effect on cornified envelope production: induces cornified envelope production
[4]; Table 2, 1 μM, grown in 1.2 mM calcium, p < 0.05
  DNA Mean: 9 ng/well
[4]; Table 2, 10 μM, grown in 1.2 mM calcium, p < 0.05
  DNA Mean: 7 ng/well
[4]; Table 2, 50 μM, grown in 1.2 mM calcium
  DNA Mean: 6 ng/well
[4]; Table 2, 100 μM, grown in 1.2 mM calcium
  DNA Mean: 4 ng/well
[4]; Table 3, 0.1 μM, grown in 1.2 mM calcium, P < 0.05
  DNA Mean: 5 ng/well
[4]; [7]
  DNA Mean: 6 ng/well
[4]; Table 4, 0.001 μM, low calcium
  DNA % control: 100 % control
  DNA Mean: 1.41 ng/well
[4]; Table 4, 0.01 μM, low calcium
  DNA % control: 100 % control
  DNA Mean: 1.42 ng/well
[4]; in high calcium, statement in words
  effect on keratinocyte proliferation: proliferation enhancer
[5]; 0.1 μM
  Pro-collagen: 194.96 arbitrary units
[5]; 1.0 μM
  Pro-collagen: 126.63 arbitrary units
[5]; [6]
  effect on synthesis of procollagen-I as compared to the control: significantly up-regulates
